Laboratory results published in ChEMBL document CHEMBL1201862, “PubChem BioAssay data set” (2004).
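All cell lines were grown in 96-well plates and treated with compound for 48 hours. GI50 = concentration required for 50% inhibition of growth.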 Activity calls are given as the source filed them. No stated cut-off is given here; in the data, active = GI50 up to about 1.1 µM and inactive = higher.

Key:
Test in all cases: inhibition of tumour cell growth, NCI panel, 48 h
786-0 = system: 786-0
A498 = system: A498
A549 = system: A549
ACHN = system: ACHN
CAKI-1 = system: CAKI-1
CCRF-CEM = system: CCRF-CEM
COLO 205 = system: COLO 205
DLD-1 = system: DLD-1
DMS-114 = system: DMS-114
EKVX = system: EKVX
HCC 2998 = system: HCC 2998
HCT-116 = system: HCT-116
HL-60 = system: HL-60
HOP-18 = system: HOP-18
HOP-62 = system: HOP-62
HOP-92 = system: HOP-92
HT-29 = system: HT-29
IGROV-1 = system: IGROV-1
K562 = system: K562
KM-20L2 = system: KM-20L2
KM12 = system: KM12
LOX IMVI = system: LOX IMVI
LXFL 529 = system: LXFL 529
M14 = system: M14
M19-MEL = system: M19-MEL
MOLT-4 = system: MOLT-4
Malme-3M = system: Malme-3M
NCI-H226 = system: NCI-H226
NCI-H23 = system: NCI-H23
NCI-H460 = system: NCI-H460
NCI-H522 = system: NCI-H522
OVCAR-3 = system: OVCAR-3
OVCAR-4 = system: OVCAR-4
OVCAR-8 = system: OVCAR-8
RXF 393 = system: RXF 393
RXF 631 = system: RXF 631
SF-268 = system: SF-268
SF-295 = system: SF-295
SF-539 = system: SF-539
SK-MEL-28 = system: SK-MEL-28
SK-MEL-5 = system: SK-MEL-5
SK-OV-3 = system: SK-OV-3
SN12C = system: SN12C
SNB-19 = system: SNB-19
SNB-75 = system: SNB-75
SNB-78 = system: SNB-78
SR = system: SR
SW-620 = system: SW-620
TK-10 = system: TK-10
U-251 = system: U-251
UACC-257 = system: UACC-257
UACC-62 = system: UACC-62
UO-31 = system: UO-31
XF498 = system: XF498
DMS-273 = system: DMS-273
HCT-15 = system: HCT-15
OVCAR-5 = system: OVCAR-5
RPMI-8226 = system: RPMI-8226
SK-MEL-2 = system: SK-MEL-2

Measured: GI50

CSc1nc2c(nc(N)n2C2OC(CO)C(O)C(O)C2O)c(=O)[nH]1 (stereo not drawn)
inactive: 786-0 > 100 µM | A498 > 100 µM | A549 > 100 µM | ACHN > 100 µM | CAKI-1 > 100 µM | CCRF-CEM > 100 µM | COLO 205 > 100 µM | DLD-1 > 100 µM | DMS-114 > 100 µM | EKVX > 100 µM | HCC 2998 > 100 µM | HCT-116 > 100 µM | HL-60 > 100 µM | HOP-18 > 100 µM | HOP-62 > 100 µM | HOP-92 > 100 µM | HT-29 > 100 µM | IGROV-1 > 100 µM | K562 > 100 µM | KM-20L2 > 100 µM | KM12 > 100 µM | LOX IMVI > 100 µM | LXFL 529 > 100 µM | M14 > 100 µM | M19-MEL > 100 µM | MOLT-4 > 100 µM | Malme-3M > 100 µM | NCI-H226 > 100 µM | NCI-H23 > 100 µM | NCI-H460 > 100 µM | NCI-H522 > 100 µM | OVCAR-3 > 100 µM | OVCAR-4 > 100 µM | OVCAR-8 > 100 µM | RXF 393 > 100 µM | RXF 631 > 100 µM | SF-268 > 100 µM | SF-295 > 100 µM | SF-539 > 100 µM | SK-MEL-28 > 100 µM | SK-MEL-5 > 100 µM | SK-OV-3 > 100 µM | SN12C > 100 µM | SNB-19 > 100 µM | SNB-75 > 100 µM | SNB-78 > 100 µM | SR > 100 µM | SW-620 > 100 µM | TK-10 > 100 µM | U-251 > 100 µM | UACC-257 > 100 µM | UACC-62 > 100 µM | UO-31 > 100 µM | XF498 41.3 µM

C=CC(C)(C)[C@@]12CC3C(=O)N[C@@H](Cc4ccccc4)C(=O)N3[C@@H]1N(C(C)=O)c1ccccc12 (stereo partly drawn)
inactive: 786-0 > 100 µM | A498 > 100 µM | A549 74.1 µM | ACHN 63.5 µM | CCRF-CEM 57.1 µM | COLO 205 36.5 µM | DLD-1 66.2 µM | DMS-114 75.3 µM | DMS-273 61.7 µM | EKVX 96.4 µM | HCT-116 > 100 µM | HL-60 30.3 µM | HOP-18 64 µM | HOP-62 > 100 µM | HOP-92 25.2 µM | HT-29 62.2 µM | IGROV-1 > 100 µM | K562 49.3 µM | KM-20L2 > 100 µM | KM12 77.8 µM | LOX IMVI > 100 µM | LXFL 529 52.6 µM | M14 57.8 µM | M19-MEL 87.5 µM | MOLT-4 27.4 µM | Malme-3M > 100 µM | NCI-H226 > 100 µM | NCI-H23 > 100 µM | NCI-H460 48.8 µM | OVCAR-3 48.6 µM | OVCAR-4 31.8 µM | OVCAR-5 > 100 µM | OVCAR-8 73.5 µM | RPMI-8226 43.2 µM | RXF 631 58.7 µM | SF-295 97.3 µM | SF-539 > 100 µM | SK-MEL-28 > 100 µM | SK-MEL-2 > 100 µM | SK-MEL-5 37.2 µM | SK-OV-3 > 100 µM | SN12C 75.3 µM | SNB-19 > 100 µM | SNB-75 59.8 µM | SNB-78 > 100 µM | SR > 100 µM | SW-620 88.7 µM | TK-10 > 100 µM | U-251 93.3 µM | UACC-257 68.4 µM | UACC-62 > 100 µM | UO-31 54.8 µM | XF498 > 100 µM
58.1 µM: HCT-15

COc1cc(/C=C2\NC(=O)C3Cc4c(OC)c(C)c(OC)c(OC)c4C2N3C)c(OC)c(C)c1OC (stereo not drawn)
inactive: 786-0 > 100 µM | A498 > 100 µM | A549 > 100 µM | ACHN > 100 µM | CAKI-1 > 100 µM | CCRF-CEM > 100 µM | COLO 205 > 100 µM | DLD-1 > 100 µM | DMS-114 > 100 µM | DMS-273 > 100 µM | EKVX > 100 µM | HCC 2998 > 100 µM | HCT-116 > 100 µM | HL-60 > 100 µM | HOP-18 > 100 µM | HOP-62 > 100 µM | HOP-92 > 100 µM | HT-29 > 100 µM | IGROV-1 > 100 µM | K562 > 100 µM | KM-20L2 > 100 µM | KM12 > 100 µM | LOX IMVI > 100 µM | LXFL 529 > 100 µM | M14 > 100 µM | M19-MEL > 100 µM | MOLT-4 44.2 µM | Malme-3M > 100 µM | NCI-H226 > 100 µM | NCI-H23 > 100 µM | NCI-H522 99.5 µM | OVCAR-3 > 100 µM | OVCAR-4 > 100 µM | OVCAR-5 > 100 µM | OVCAR-8 > 100 µM | RXF 393 85.3 µM | RXF 631 > 100 µM | SF-268 > 100 µM | SF-295 > 100 µM | SF-539 > 100 µM | SK-MEL-28 > 100 µM | SK-MEL-5 > 100 µM | SK-OV-3 > 100 µM | SN12C > 100 µM | SNB-19 > 100 µM | SNB-75 > 100 µM | SNB-78 > 100 µM | SR > 100 µM | SW-620 > 10 µM | TK-10 > 100 µM | U-251 > 100 µM | UACC-257 > 100 µM | UACC-62 > 100 µM | UO-31 > 100 µM | XF498 > 100 µM
